{"source": "patent US20240216412A1", "about": "“OXIDIZED NICOTINAMIDE ADENINE DINUCLEOTIDE (NAD+) PRECURSOR TREATMENT FOR HEART FAILURE ALLEVIATION INDEPENDENT OF MITOCHONDRIAL PROTEIN DEACETYLATION” (University of Washington, priority 2022, published 2024)", "key": {"[1]": {"system": "WT TAC heart transcriptome", "assay": "RNA sequencing with GSEA of TAC hearts", "assay_type": "in vivo, mouse", "conditions": "NR treated TAC hearts vs vehicle", "procedure": "RNA Sequencing. Total RNA was extracted from 30 mg of heart tissue using the Qiagen RNeasy kit. RNA Sequencing and quality control was performed BGI (BGISEQ-500). Data Analysis-RNAseq samples were aligned using Tophat (Trapnell et al., 2009) (version 2.0.13). Genelevel read counts were quantified using htseq-count (Anders et al., 2015). Genes expressed above 4TPM in at least 2 samples were used. In differential expression (DESeq), A gene to have total normalized reads above 10 across all samples. DeSeq (Anders and Huber, 2010) was used for differential gene expression analysis. Genes with fold change >1.5 and FDR <0.1 were considered differentially expressed. GSEA was performed using Broad Institute software against the Reactome database. Iregulon v1.3 was used to predict transcription factor binding motif. The following options were used: Motif collection 10 K (9713 PWMs), putative regulatory region 20 kb centered around TSS (7 species). Program default settings for Recovery and Transcription factor prediction options were selected for the analysis."}, "[2]": {"system": "fatty acid oxidation (acylcarnitines) in heart", "assay": "Cardiac acyl-carnitine profiling (LC/MS)", "assay_type": "in vivo, mouse", "procedure": "Cardiac acyl-carnitines. Metabolites were extracted from frozen heart tissue (10 mg) by precipitating in 80:20% methanol:water following the addition of 1 ug/ml internal standard (C16 palmitoylcarnitine, d3, Cambridge Isotope Laboratories, Inc.). After centrifugation, the supernatant was transferred to LC/MS auto sampler vials (Thermo Fisher). The protein pellet was redissolved in 0.1 M NaOH and protein concentration measured for normalization.\nAcyl-carnitines were analyzed using a Triple TOF—5600 (AB Sciex) series mass spectrometer in line with a Water Acquity I-class UPLC. Chromatographic separation was achieved using an Acquity UPLC BEH HILIC, 1.7 micron, 2.1×100 mm column (Waters) with a flow rate of 0.5 ml/min. Total run time was 22 minutes. The mobile phase was composed of two solvents: A=5 mM Ammonium Acetate in 95:5 acetonitrile:water and B=5 mM Ammonium Acetate in 50:50 acetonitrile:water using the following gradient.\nSamples were analyzed in positive electrospray ionization (ESI+) with a mass range from 50-1000 Da. […] Additional acyl-carnitines were identified by their m/z value as compared to theoretical values determined by the molecular formula ±0.003 D. Peak areas intensities were normalized to protein concentration."}}}
{"smiles": "NC(=O)c1ccc[n+]([C@@H]2O[C@H](CO)[C@@H](O)[C@H]2O)c1", "note": "[NR, Nicotinamide riboside chloride]", "values": [{"measurement": "Pathways of genes significantly downregulated (GSEA)", "setting": "[1]", "value": "enriched in pathways relating to collagen formation and extracellular matrix organization"}, {"measurement": "Pathways of genes significantly upregulated (GSEA)", "setting": "[1]", "value": "enriched in pathways relating to mitochondrial metabolism"}, {"measurement": "Tissue content of lipid derived acylcarnitines and hydroxy-acylcarnitines", "setting": "[2]; NR treated TAC hearts, to level similar to WT-Sham", "value": "increased"}, {"measurement": "C16 (palmitoylcarnitine) levels", "setting": "[2]; WT and Sirt3ko NR treated TAC hearts vs vehicle", "value": "increased"}]}
